Measurements published in paper PMC10035389, “Safety, Tolerability, and Pharmacokinetics of TAK-931, a Cell Division Cycle 7 Inhibitor, in Patients with Advanced Solid Tumors: A Phase I First-in-Human Study” (Cancer Research Communications, 2022).

System: patients with advanced solid tumors
Test: Safety and tolerability (adverse events, NCI CTCAE v4.03), phase I dose-escalation study
Assay type: in vivo, human
Excerpt: This was a phase I, open-label, dose-escalation study of single-agent TAK-931. Dose escalation of TAK-931 was cohort based with an adaptive design using Bayesian logistic regression modeling (BLRM) with pharmacokinetic guidance. BLRM also guided MTD estimation from the second dose. Patients were enrolled in one of four dosing schedules (A, B, D, or E; Supplementary Fig. S1) to receive TAK-931. Two additional schedules were planned (C and F) but no patients were enrolled. Schedule A included an initial accelerated escalation phase. TAK-931 was administered once daily for 14 days in 21-day cycles starting at 30 mg, which doubled until a cycle 1 dose-limiting toxicity (DLT) was observed, when 2 patients experienced grade ≥2 treatment-related toxicity, or when maximum geometric mean plasma concentration (Cmax) for the cohort reached or exceeded 800 ng/mL [threshold for off-target adverse effects (hypotension) in animal toxicology studies]; then dose escalation transitioned to modified Fibonacci escalation steps. In schedule B (based on experience with schedule A), patients received TAK-931 once daily or twice daily for 7 days on, 7 days off in a 28-day cycle starting at 60 mg. In schedule D, patients received TAK-931 once daily starting at 20 mg in 21-day cycles; BLRM was not applied but further adjustments were dependent on observed safety, pharmacokinetics, and pharmacodynamics. In schedule E, patients received TAK-931 once daily for 2 days on, 5 days off starting at 100 mg in 21-day cycles. A safety expansion was permitted once MTD had been determined. Prophylactic growth factors were permitted in all schedules to manage severe and/or febrile neutropenia. TAK-931 treatment continued until unacceptable toxicity, disease progression, or patient withdrawal.
DLTs included: cycle 1 grade ≥3 hematologic and non-hematologic events or grade 2 non-hematologic events considered by the investigator to be TAK-931-related, grade 2 ejection fraction decrease, >2 weeks delay in initiating cycle 2 (1 week for schedules D and E), and >50% TAK-931 dose reduction in cycle 1 due to treatment-related adverse events (AEs; see Supplementary Materials and Methods for full DLT criteria). Toxicity was evaluated by NCI Common Terminology Criteria for Adverse Events (version 4.03). Tumor response was measured using the RECIST (version 1.1) ([16]). Serial blood samples for pharmacokinetic analysis were collected during cycle 1 on days 1 and 7 (schedule B), 1 and 8 (schedules A and D), or 1 and 9 (schedule E). Pharmacokinetic parameters were estimated from concentration–time profiles using noncompartmental methods with WinNonlin® Phoenix™ version 8.1 (Certara, Princeton, NJ). pMCM2 was detected semiquantitatively by IHC of histologic sections of formalin-fixed, paraffin-embedded skin and tumor biopsies using anti-pMCM2 (3378-1, Epitomics Inc.; ref. [15]). Quantitative image analysis determined pMCM2 levels as “histologic score nuclei (H-score).” Skin punch biopsies (2–4 mm) were obtained during screening or predose on cycle 1, day 1 and for patients in schedules A, B, and D, postdose on any drug dosing day after 3 consecutive dosing days in cycle 1. A postdose skin biopsy was obtained on day 9 in schedule E. Fresh tumor biopsy pairs were collected predose and postdose on any dosing day after the completion of 3 consecutive dosing days in cycle 1 from patients who received doses considered to have biological effect.
The safety population included patients who received ≥1 dose of TAK-931. The pharmacodynamic-evaluable population comprised patients from the safety population with a baseline and ≥1 additional postbaseline biopsy sample that was suitable for pMCM2 analysis. The pharmacokinetic-evaluable population included patients with sufficient dosing and TAK-931 concentration–time data to estimate pharmacokinetic parameters. […]

[1] = Schedule A (once daily 14 days, 21-day cycles) n = 25
[2] = Schedule B (7 days on, 7 days off, 28-day cycles) n = 24
[3] = Schedule D (continuous once daily) n = 18

Cc1[nH]ncc1-c1cc2nc([C@@H]3CC4CCN3CC4)[nH]c(=O)c2s1 [TAK-931, simurosertib]
6 (24) n (%): Alopecia, AE any grade [1] | Anemia, AE any grade [1]
5 (21) n (%): Constipation, AE any grade [2] | Decreased appetite, AE any grade [2] | Fatigue, AE any grade [2] | White blood cell count decreased, AE any grade [2]
1 (6) n (%): Arthralgia, AE any grade [3] | Blood creatinine increased, AE any grade [3] | Diarrhea, AE any grade [3] | Dry skin, AE any grade [3] | Fall, AE any grade [3] | Nasopharyngitis, AE any grade [3] | Pruritus, AE any grade [3]
2 (8) n %: Decreased appetite, grade ≥3 AE [1] | Gamma-glutamyltransferase increased, grade ≥3 AE [2] | Hypoalbuminemia, grade ≥3 AE [2]
5 (28) n (%): Nausea, AE any grade [3]
6 (25) n (%): Stomatitis, AE any grade [2]
3 (12) n (%): Arthralgia, AE any grade [1] | Blood creatinine increased, AE any grade [1] | Cough, AE any grade [1] | Electrocardiogram QT prolonged, AE any grade [1] | Lymphocyte count decreased, AE any grade [1] | Tumor pain, AE any grade [1]
2 (11) n (%): Constipation, AE any grade [3] | Edema peripheral, AE any grade [3] | Platelet count decreased, AE any grade [3] | Pyrexia, AE any grade [3]
19 (79) n (%): Neutropenia, AE any grade [2]
8 (32) n (%): White blood cell count decreased, AE any grade [1]
2 (8) n (%): Abdominal pain, AE any grade [1] | Constipation, AE any grade [1] | Fatigue, AE any grade [1] | Hypotension, AE any grade [1] | Lymphopenia, AE any grade [1] | Nasopharyngitis, AE any grade [1] | Platelet count decreased, AE any grade [1] | Hypoalbuminemia, AE any grade [2]
4 (17) n (%): Anemia, AE any grade [2] | Diarrhea, AE any grade [2] | Hypotension, AE any grade [2] | Thrombocytopenia, AE any grade [2]
12 (48) n (%): Neutropenia, AE any grade [1]
1 (6) n %: Anemia, grade ≥3 AE [3] | Decreased appetite, grade ≥3 AE [3]
0 (0) n %: Gamma-glutamyltransferase increased, grade ≥3 AE [1] | Hypoalbuminemia, grade ≥3 AE [1] | Decreased appetite, grade ≥3 AE [2] | Lymphocyte count decreased, grade ≥3 AE [2] | Febrile neutropenia, grade ≥3 AE [3] | Gamma-glutamyltransferase increased, grade ≥3 AE [3] | Hypoalbuminemia, grade ≥3 AE [3] | Hypophosphatemia, grade ≥3 AE [3] | Leukopenia, grade ≥3 AE [3] | Lymphocyte count decreased, grade ≥3 AE [3]
4 (16) n (%): Edema peripheral, AE any grade [1] | Hypoalbuminemia, AE any grade [1]
1 (4) n %: Anemia, grade ≥3 AE [1] | Febrile neutropenia, grade ≥3 AE [1] | Hypophosphatemia, grade ≥3 AE [1] | Lymphocyte count decreased, grade ≥3 AE [1] | Hypophosphatemia, grade ≥3 AE [2]
11 (44) n %: Neutropenia, grade ≥3 AE [1]
3 (17) n %: Neutropenia, grade ≥3 AE [3]
21 (88) n (%): Nausea, AE any grade [2]
3 (17) n (%): Alopecia, AE any grade [3] | Anemia, AE any grade [3] | Fatigue, AE any grade [3] | Malaise, AE any grade [3]
15 (63) n %: Neutropenia, grade ≥3 AE [2]
13 (54) n (%): Alopecia, AE any grade [2] | Leukopenia, AE any grade [2] | Vomiting, AE any grade [2]
3 (13) n %: Anemia, grade ≥3 AE [2] | Febrile neutropenia, grade ≥3 AE [2] | White blood cell count decreased, grade ≥3 AE [2]
5 (20) n %: Leukopenia, grade ≥3 AE [1]
7 (28) n (%): Decreased appetite, AE any grade [1] | Diarrhea, AE any grade [1] | Vomiting, AE any grade [1]
5 (20) n (%): Leukopenia, AE any grade [1] | Malaise, AE any grade [1] | Pyrexia, AE any grade [1]
6 (25) n %: Leukopenia, grade ≥3 AE [2]
15 (60) n (%): Nausea, AE any grade [1]
1 (4) n (%): Dry skin, AE any grade [1] | Febrile neutropenia, AE any grade [1] | Thrombocytopenia, AE any grade [1] | Arthralgia, AE any grade [2] | Dry skin, AE any grade [2] | Edema peripheral, AE any grade [2] | Fall, AE any grade [2] | Malaise, AE any grade [2] | Orthostatic hypotension, AE any grade [2] | Platelet count decreased, AE any grade [2] | Pyrexia, AE any grade [2] | Tumor pain, AE any grade [2]
6 (33) n (%): Decreased appetite, AE any grade [3] | Neutropenia, AE any grade [3]
0 (0) n (%): Fall, AE any grade [1] | Gamma-glutamyltransferase increased, AE any grade [1] | Orthostatic hypotension, AE any grade [1] | Pruritus, AE any grade [1] | Rash popular, AE any grade [1] | Stomatitis, AE any grade [1] | Cough, AE any grade [2] | Electrocardiogram QT prolonged, AE any grade [2] | Lymphocyte count decreased, AE any grade [2] | Abdominal pain, AE any grade [3] | Cough, AE any grade [3] | Electrocardiogram QT prolonged, AE any grade [3] | Febrile neutropenia, AE any grade [3] | Gamma-glutamyltransferase increased, AE any grade [3] | Hypoalbuminemia, AE any grade [3] | Hypotension, AE any grade [3] | Leukopenia, AE any grade [3] | Lymphocyte count decreased, AE any grade [3] | Lymphopenia, AE any grade [3] | Orthostatic hypotension, AE any grade [3]
3 (12) n %: White blood cell count decreased, grade ≥3 AE [1]
3 (13) n (%): Abdominal pain, AE any grade [2] | Blood creatinine increased, AE any grade [2] | Febrile neutropenia, AE any grade [2] | Gamma-glutamyltransferase increased, AE any grade [2] | Lymphopenia, AE any grade [2] | Nasopharyngitis, AE any grade [2] | Pruritus, AE any grade [2] | Rash popular, AE any grade [2]
